Results taken from PubChem BioAssay (NCI).
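1) Cells in 96-well plates. 2) Compound, 48 h, 5 concentrations. 3) Linear interpolation between surrounding doses. 4) Unreached endpoint = highest concentration. Definition used: TGI = concentration required for complete inhibition of growth.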

Columns and labels:
Assay in all cases: NCI tumour cell line growth inhibition, 48 h
MOLT-4 leukemia = system: MOLT-4 leukemia
LXFL 529 NSCLC = system: LXFL 529 NSCLC
LOX IMVI melanoma = system: LOX IMVI melanoma
CAKI-1 renal = system: CAKI-1 renal
SR leukemia = system: SR leukemia
U251 CNS = system: U251 CNS
HOP-62 NSCLC = system: HOP-62 NSCLC
HT29 colon = system: HT29 colon
SNB-78 CNS = system: SNB-78 CNS
786-0 renal = system: 786-0 renal
EKVX NSCLC = system: EKVX NSCLC
OVCAR-3 ovarian = system: OVCAR-3 ovarian
DMS 273 small cell lung = system: DMS 273 small cell lung
M19-MEL melanoma = system: M19-MEL melanoma
A549 NSCLC = system: A549 NSCLC
IGROV1 ovarian = system: IGROV1 ovarian
XF 498 CNS = system: XF 498 CNS
SK-OV-3 ovarian = system: SK-OV-3 ovarian
NCI-H226 lung = system: NCI-H226 lung
DLD-1 colon = system: DLD-1 colon
NCI-H460 lung = system: NCI-H460 lung
SN12C renal = system: SN12C renal
SK-MEL-2 melanoma = system: SK-MEL-2 melanoma
KM12 colon = system: KM12 colon
COLO 205 colon = system: COLO 205 colon
TK-10 renal = system: TK-10 renal
SNB-75 CNS = system: SNB-75 CNS
OVCAR-5 ovarian = system: OVCAR-5 ovarian
KM20L2 colon = system: KM20L2 colon
SF-268 CNS = system: SF-268 CNS
HCT-116 colon = system: HCT-116 colon
SW-620 colon = system: SW-620 colon
OVCAR-4 ovarian = system: OVCAR-4 ovarian
UACC-257 melanoma = system: UACC-257 melanoma
DMS 114 small cell lung = system: DMS 114 small cell lung
HOP-92 NSCLC = system: HOP-92 NSCLC
SNB-19 CNS = system: SNB-19 CNS
M14 melanoma = system: M14 melanoma
UACC-62 melanoma = system: UACC-62 melanoma
HOP-18 NSCLC = system: HOP-18 NSCLC
SK-MEL-28 melanoma = system: SK-MEL-28 melanoma
NCI-H522 lung = system: NCI-H522 lung
MALME-3M melanoma = system: MALME-3M melanoma
RPMI-8226 leukemia = system: RPMI-8226 leukemia
OVCAR-8 ovarian = system: OVCAR-8 ovarian
SF-539 CNS = system: SF-539 CNS
RXF 393 renal = system: RXF 393 renal
SK-MEL-5 melanoma = system: SK-MEL-5 melanoma
NCI-H23 lung = system: NCI-H23 lung
UO-31 renal = system: UO-31 renal
SF-295 CNS = system: SF-295 CNS
ACHN renal = system: ACHN renal
A498 renal = system: A498 renal
HCT-15 colon = system: HCT-15 colon
K-562 leukemia = system: K-562 leukemia
RXF-631 renal = system: RXF-631 renal
HCC-2998 colon = system: HCC-2998 colon
CCRF-CEM leukemia = system: CCRF-CEM leukemia
HL-60(TB) leukemia = system: HL-60(TB) leukemia

C=C1CC2CC(O)CC(C1)C2 (configuration not stated) was tested, and the TGI (MOLT-4 leukemia) was over 100 µM, the TGI (LXFL 529 NSCLC) was over 100 µM and the TGI (LOX IMVI melanoma) was over 100 µM. The TGI (CAKI-1 renal) was over 100 µM, the TGI (SR leukemia) was over 100 µM and the TGI (U251 CNS) was over 100 µM. It also gave a TGI (HOP-62 NSCLC) of over 100 µM, a TGI (HT29 colon) of over 100 µM and a TGI (SNB-78 CNS) of over 100 µM. For the same compound, the TGI (786-0 renal) was over 100 µM, the TGI (EKVX NSCLC) was over 100 µM and the TGI (OVCAR-3 ovarian) was over 100 µM. The TGI (DMS 273 small cell lung) was over 100 µM, the TGI (M19-MEL melanoma) was over 100 µM and the TGI (A549 NSCLC) was over 100 µM. The TGI (IGROV1 ovarian) was over 100 µM, the TGI (XF 498 CNS) was over 100 µM and the TGI (SK-OV-3 ovarian) was over 100 µM. It also gave a TGI (NCI-H226 lung) of over 100 µM, a TGI (DLD-1 colon) of over 100 µM and a TGI (NCI-H460 lung) of over 100 µM. It also gave a TGI (SN12C renal) of over 100 µM, a TGI (SK-MEL-2 melanoma) of over 100 µM and a TGI (KM12 colon) of over 100 µM. The TGI (COLO 205 colon) was over 100 µM, the TGI (TK-10 renal) was over 100 µM and the TGI (SNB-75 CNS) was over 100 µM. The TGI (OVCAR-5 ovarian) was over 100 µM, the TGI (KM20L2 colon) was over 100 µM and the TGI (SF-268 CNS) was over 100 µM. For the same compound, the TGI (HCT-116 colon) was over 100 µM, the TGI (SW-620 colon) was over 100 µM and the TGI (OVCAR-4 ovarian) was over 100 µM. The TGI (UACC-257 melanoma) was over 100 µM, the TGI (DMS 114 small cell lung) was over 100 µM and the TGI (HOP-92 NSCLC) was over 100 µM. The TGI (SNB-19 CNS) was over 100 µM, the TGI (M14 melanoma) was over 100 µM and the TGI (UACC-62 melanoma) was over 100 µM. It also gave a TGI (HOP-18 NSCLC) of over 100 µM, a TGI (SK-MEL-28 melanoma) of over 100 µM and a TGI (NCI-H522 lung) of over 100 µM. It also gave a TGI (MALME-3M melanoma) of over 100 µM, a TGI (RPMI-8226 leukemia) of over 100 µM and a TGI (OVCAR-8 ovarian) of over 100 µM. The TGI (SF-539 CNS) was over 100 µM, the TGI (RXF 393 renal) was over 100 µM and the TGI (SK-MEL-5 melanoma) was over 100 µM. The TGI (NCI-H23 lung) was over 100 µM, the TGI (UO-31 renal) was over 100 µM and the TGI (SF-295 CNS) was over 100 µM. For the same compound, the TGI (ACHN renal) was over 100 µM and the TGI (A498 renal) was over 100 µM.
With COc1ccc2c3c(c(C(=O)c4ccccc4)oc13)CCC2 the TGI (MOLT-4 leukemia) was over 100 µM, the TGI (LXFL 529 NSCLC) was over 100 µM and the TGI (LOX IMVI melanoma) was over 100 µM. It also gave a TGI (CAKI-1 renal) of over 100 µM, a TGI (U251 CNS) of over 100 µM and a TGI (HOP-62 NSCLC) of over 100 µM. It also gave a TGI (HT29 colon) of over 100 µM, a TGI (SNB-78 CNS) of over 100 µM and a TGI (786-0 renal) of over 100 µM. The TGI (EKVX NSCLC) was over 100 µM, the TGI (HCT-15 colon) was over 100 µM and the TGI (OVCAR-3 ovarian) was over 100 µM. It also gave a TGI (DMS 273 small cell lung) of over 100 µM, a TGI (M19-MEL melanoma) of over 100 µM and a TGI (A549 NSCLC) of over 100 µM. For the same compound, the TGI (IGROV1 ovarian) was over 100 µM, the TGI (K-562 leukemia) was over 100 µM and the TGI (XF 498 CNS) was over 100 µM. It also gave a TGI (SK-OV-3 ovarian) of over 100 µM, a TGI (DLD-1 colon) of over 100 µM and a TGI (NCI-H460 lung) of over 100 µM. It also gave a TGI (SN12C renal) of over 100 µM, a TGI (RXF-631 renal) of over 100 µM and a TGI (COLO 205 colon) of over 100 µM. For the same compound, the TGI (TK-10 renal) was over 100 µM, the TGI (SNB-75 CNS) was over 100 µM and the TGI (KM20L2 colon) was over 100 µM. The TGI (HCT-116 colon) was over 100 µM, the TGI (SW-620 colon) was over 100 µM and the TGI (OVCAR-4 ovarian) was over 100 µM. It also gave a TGI (UACC-257 melanoma) of over 100 µM, a TGI (DMS 114 small cell lung) of over 100 µM and a TGI (SNB-19 CNS) of over 100 µM. The TGI (M14 melanoma) was over 100 µM, the TGI (UACC-62 melanoma) was over 100 µM and the TGI (HCC-2998 colon) was over 100 µM. It also gave a TGI (HOP-18 NSCLC) of over 100 µM, a TGI (SK-MEL-28 melanoma) of over 100 µM and a TGI (CCRF-CEM leukemia) of over 100 µM. For the same compound, the TGI (RPMI-8226 leukemia) was over 100 µM, the TGI (OVCAR-8 ovarian) was over 100 µM and the TGI (SF-539 CNS) was over 100 µM. It also gave a TGI (RXF 393 renal) of 31.3 µM, a TGI (SK-MEL-5 melanoma) of over 100 µM and a TGI (NCI-H23 lung) of 41.4 µM. The TGI (SF-295 CNS) was over 100 µM, the TGI (HL-60(TB) leukemia) was over 100 µM and the TGI (ACHN renal) was over 100 µM. For the same compound, the TGI (A498 renal) was over 100 µM.
